Measured values from patent US10717731B2, “Nitrogen-containing aromatic heterocyclic compound” (MITSUBISHI TANABE PHARMA CORPORATION, priority 2015, dated 2020).

target: T1, human Cyp11B1 (Homo sapiens, UniProt P15538); experiment: Selectivity: IC50 against human Cyp11B2 compared with human Cyp11B1; format: biochemical; details: ratio of IC50 values (nM)
T1 sequence (P15538 25-503): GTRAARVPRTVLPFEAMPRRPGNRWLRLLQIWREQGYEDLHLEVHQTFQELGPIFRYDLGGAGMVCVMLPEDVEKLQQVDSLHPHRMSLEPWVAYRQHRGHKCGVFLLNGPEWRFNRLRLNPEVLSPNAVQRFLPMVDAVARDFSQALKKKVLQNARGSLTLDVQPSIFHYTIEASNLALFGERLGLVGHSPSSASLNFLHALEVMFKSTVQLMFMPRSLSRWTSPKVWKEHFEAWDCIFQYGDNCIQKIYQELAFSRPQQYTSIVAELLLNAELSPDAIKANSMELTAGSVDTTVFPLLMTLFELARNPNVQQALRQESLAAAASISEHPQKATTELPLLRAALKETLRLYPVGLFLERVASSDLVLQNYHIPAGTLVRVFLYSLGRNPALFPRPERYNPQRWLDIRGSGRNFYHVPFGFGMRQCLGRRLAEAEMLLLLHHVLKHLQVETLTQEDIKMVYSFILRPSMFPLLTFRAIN

Row | IC50 value against human Cyp11B2 versus human Cyp11B1 (selectivity) [times] | SMILES
1 | 100 | CC(C)NC(=O)CN1CCN(c2cncc(-c3ccc4cnn(C)c4c3)n2)CC1 [Example 49]

target: T2, human CYP11B2 (Homo sapiens, UniProt P19099); experiment: Inhibitory effect on hCYP11B2: aldosterone production in mitochondrial fraction of V79 cells stably expressing human CYP11B2, HTRF; format: biochemical; details: 0.5 μmol/L deoxycorticosterone, 150 μmol/L NADPH, 1.5-2 hours at room temperature
T2 construct: expressed in transfected cells; mitochondrial fraction
T2 sequence (P19099 25-503): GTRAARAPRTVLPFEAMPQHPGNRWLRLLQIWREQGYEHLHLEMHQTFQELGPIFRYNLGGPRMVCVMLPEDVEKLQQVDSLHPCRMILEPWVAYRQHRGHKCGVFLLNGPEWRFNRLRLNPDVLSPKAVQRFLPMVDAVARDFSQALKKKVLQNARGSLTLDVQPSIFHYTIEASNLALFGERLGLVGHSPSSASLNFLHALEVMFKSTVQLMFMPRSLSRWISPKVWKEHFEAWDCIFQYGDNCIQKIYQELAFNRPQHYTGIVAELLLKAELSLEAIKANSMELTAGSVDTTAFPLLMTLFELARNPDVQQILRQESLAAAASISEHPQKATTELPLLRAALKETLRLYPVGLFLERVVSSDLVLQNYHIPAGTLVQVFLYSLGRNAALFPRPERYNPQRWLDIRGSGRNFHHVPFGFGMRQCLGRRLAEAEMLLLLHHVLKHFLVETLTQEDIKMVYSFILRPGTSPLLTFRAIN
Protocol: Experimental Example 1 (Inhibitory Effect on hCYP11B2)
The pcDNA3.1-human CYP11B2 plasmid was transfected into a Chinese hamster lung fibroblast V79 cell line to produce a cell line stably expressing human CYP11B2 gene.
The cells were cultured and grown in the Dulbecco's modified Eagle's/Ham's medium supplemented with 10% fetal bovine serum and 1% G418 disulfate solution under the environment of 37° C., 95% air, and 5% CO2, and the grown cells were harvested.
Then, the cells were fractionated to obtain mitochondria by reference to a method described in Chabre et al. JCE & M 85 (11) 4060-68, 2000. In particular, the cells suspended in a 5 mmol/L Tris-HCl buffer (pH 7.4) containing 250 mmol/L sucrose were homogenized in a Teflon (Registered Trademark) Potter Elvehjem homogenizer, and then the suspension was centrifuged (800×g, 15 min.). The supernatant was separated and again centrifuged (10000×g, 15 min.) to obtain a pellet (mitochondrial fraction).
The mitochondrial fraction diluted with a buffer containing 10 mmol/L KH2PO4, 10 mmol/L Tris, 20 mmol/L KCl, 25 mmol/L sucrose, 5 mmol/L MgCl2, and 0.05% bovine serum albumin was dispensed to a 96-well plate. 0.5 μmol/L Deoxycorticosterone, 150 μmol/L NADPH and a compound of each concentration were added to each well, and incubated for 1.5-2 hours at room temperature to produce aldosterone. An amount of the produced aldosterone in the incubated solution was determined by using HTRF (Homogeneous Time Resolved Fluorescence) method.
IC50 (nmol/L) was calculated by analyzing the aldosterone production inhibition rate (%) of each concentration of compounds by non-linear regression to a logistic curve.

Row | IC50 [nM] | SMILES
2 | 33 | O=C(CN1CCN(c2cc(-c3ccc(Cl)cc3)cnn2)CC1)NC1CCNCC1O (single isomer, unassigned) [Example 90a]
3 | 19 | O=C(CN1CCN(c2cc(-c3ccc(F)cc3)cnn2)CC1)NCCN1CCS(=O)(=O)CC1 [Example 74]
4 | 21 | CN(C)[C@H]1CC[C@H](NC(=O)CN2CCN(c3cc(-c4ccc(F)cc4)cnn3)CC2)CC1 [Example 79]
5 | 3.9 | O=C1CN([C@H]2CC[C@@H](NC(=O)CN3CCN(c4cncc(-c5ccc(F)cc5)n4)CC3)CC2)CCN1 [Example 33]
6 | 4 | O=C(CN1CCN(c2cncc(-c3ccc(Cl)cc3)n2)CC1)NN1CCCC1 [Example 40]
7 | 18 | Cc1ccc(-c2cnnc(N3CCN(CC(=O)NC[C@H]4CN(C)CCO4)CC3)c2)cc1 [Example 60]
8 | 14 | CC(C)NC(=O)CN1CCN(c2cc(-c3ccc4c(c3)CCO4)cnn2)CC1 [Example 82]
9 | 6.6 | O=C(CN1CCN(c2cncc(-c3ccc(F)cc3)c2)CC1)NC1CCn2ccnc2C1 (centres unmarked) [Example 1]
10 | 102 | CC(C)NC(=O)CN1CCN(c2cc(-c3ccc(C#N)nc3)cnn2)CC1 [Example 83]
11 | 23 | CNC(=O)CN1CCC(NC(=O)CN2CCN(c3cc(-c4ccc(C)cc4)cnn3)CC2)CC1 [Example 59]
12 | 8.6 | CS(=O)(=O)CCN1CCC(NC(=O)CN2CCN(c3cncc(-c4ccc(F)cc4)n3)CC2)CC1 [Example 35]

More lines, now with the values behind:

Row | SMILES | IC50 [nM]
13 | CN(C)[C@H]1CC[C@@H](NC(=O)CN2CCN(c3cc(-c4c(F)cccc4F)cnn3)CC2)CC1 [Example 67] | 41
14 | Cc1ccccc1-c1cnnc(N2CCN(CC(=O)N[C@H]3CC[C@H](N4CCOCC4)CC3)CC2)c1 [Example 57] | 16
15 | CC(C)NC(=O)CN1CCN(c2cncc(-c3ccc4cnn(C)c4c3)n2)CC1 [Example 49] | 7.5
16 | CN1CCC(NC(=O)CN2CCN(c3cncc(-c4ccc5cnn(C)c5c4)n3)CC2)CC1 [Example 27] | 42
17 | Cn1ncc2ccc(-c3cncc(N4CCN(CC(=O)N[C@H]5CC[C@@H](CO)CC5)CC4)n3)cc21 [Example 22] | 19
18 | C[C@@H]1CN(c2cncc(-c3ccc(C(F)(F)F)cc3)n2)CCN1CC(=O)N[C@H]1CC[C@](C)(O)CC1 [Example 43] | 41
19 | CC1CCC(c2cncc(N3CCN(CC(=O)NC(C)C)CC3)n2)CC1 (centres unmarked) [Example 52] | 18
20 | CC1CCC(c2cnnc(N3CCN(CC(=O)NC(C)C)CC3)c2)CC1 (centres unmarked) [Example 84] | 32
21 | CC(C)NC(=O)CN1CCN(c2cncc(-c3ccc(C(F)(F)F)cc3)n2)C[C@H]1C [Example 51] | 17
22 | Cc1ccccc1-c1cncc(N2CCN(CC(=O)Nc3cnn(C)c3)CC2)c1 [Example 7] | 4.8
23 | CC(C)NC(=O)CN1CCN(c2cncc(-c3ccc4cn[nH]c4c3)n2)CC1 [Example 56] | 38
